Reference: publication PMC12606616, “Synthesis, Characterization, and In Vitro and In Silico Studies of New Triazole Derivatives as Aromatase Inhibitors” (Medicinal Chemistry (Shariqah (United Arab Emirates), 2024)

How the values were obtained:
[1] = test system: A549 (Lung cancer cell); assay: MTT cytotoxicity assay, A549; format: cell-based; conditions: Homo sapiens; 24-hour MTT, A549 cell line; read-out: IC50 against A549
Procedure: (§1) Cytotoxicity studies were carried out using the MTT method, based on the principle of forming purple formazan salt. The MTT procedure was performed using a CO2 incubator during a 24-hour incubation period, as described in our previous publications. The results were detected with a microplate reader.
(§2) For activity studies, the 24-hour MTT procedure was applied. A549 (Lung cancer cell) (ATCC-CRM-CCL-185), MCF-7 (breast cancer cell) (ATCC-HTB-22), and NIH3T3 (normal fibroblast cell) (ATCC-CRL-1658) were used. Looking at the activity results, compound 4d is promising. […] The value shown against the MCF-7 cell line is especially important. Therefore, compound 4d was subjected to the aromatase enzyme inhibition test in vitro. When the structure of compound 4d was examined, unlike other compounds, it carried a nitro substitution in the fourth position of the phenyl ring.

[2] = test system: MCF-7 (breast cancer cell); assay: MTT cytotoxicity assay, MCF-7; format: cell-based; conditions: Homo sapiens, MCF7; 24-hour MTT, MCF-7 cell line; read-out: IC50 against MCF-7
Procedure: as §1, §2

[3] = test system: NIH3T3 (normal fibroblast cell); assay: MTT cytotoxicity assay, NIH3T3 healthy cell line; format: cell-based; conditions: Mus musculus, 24-hour MTT, read-out: IC50 against NIH3T3
Procedure: as §1, §2

[4] = test system: DNA synthesis; assay: BrdU analysis (DNA synthesis inhibition); format: cell-based
Procedure: Three different incubation periods were selected for the experiment, which was carried out according to the kit procedure. (BioVision, BrdU Cell Proliferation Assay Kit (Fluorometric)). Test results performed at 24-hour, 48-hour, and 72-hour periods were based on fluorimetric measurement of the color change caused by the addition of the stop solution. It enables us to find out where the anticancer effect of anticancer compounds originates from. In other words, the following question persists: by affecting which phase in the cell cycle is DNA synthesis inhibited? BrdU analysis is important to find the answer to this question.
With the Brdu studies, the potential of compound 4d to inhibit DNA synthesis was examined in 24-, 48- and 72-hour periods. […] Since DNA synthesis occurs in the […] of the cell cycle, it would be a correct approach to say that the compounds affect the G2 phase.

[5] = molecular target: T1, Aromatase (CYP19A) (Homo sapiens, UniProt P11511); assay: Aromatase (CYP19A) inhibitor screening kit (fluorometric); format: biochemical; conditions: read-out: IC50 aromatase enzyme inhibition
T1 construct: purchased BioVision
T1 sequence (P11511 1-503): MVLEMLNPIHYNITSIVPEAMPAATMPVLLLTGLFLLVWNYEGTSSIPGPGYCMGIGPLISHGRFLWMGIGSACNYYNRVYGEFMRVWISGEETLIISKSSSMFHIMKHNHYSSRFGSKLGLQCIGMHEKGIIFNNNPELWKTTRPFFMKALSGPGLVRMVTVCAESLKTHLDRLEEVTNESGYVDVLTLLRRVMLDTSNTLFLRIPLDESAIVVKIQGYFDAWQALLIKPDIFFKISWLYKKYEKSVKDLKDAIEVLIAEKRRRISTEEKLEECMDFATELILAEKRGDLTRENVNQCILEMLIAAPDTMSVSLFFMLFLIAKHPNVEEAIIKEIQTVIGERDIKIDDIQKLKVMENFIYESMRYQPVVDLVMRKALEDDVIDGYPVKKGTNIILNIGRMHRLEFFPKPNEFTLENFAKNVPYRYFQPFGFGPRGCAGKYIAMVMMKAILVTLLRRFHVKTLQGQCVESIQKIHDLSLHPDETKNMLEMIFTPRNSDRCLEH
Procedure: In the experiment performed according to the kit procedure, IC50 values of the compound were calculated from the results obtained with the help of a microplate reader (BioVision, Aromatase (CYP19A) Inhibitor Screening Kit (Fluorometric)).

| Compound | IC50 [1] [µM] | IC50 [2] [µM] | IC50 [3] [µM] | DNA synthesis inhibition ([4]; 24-hour incubation, 2xIC50 dose) [%] | DNA synthesis inhibition ([4]; 24-hour incubation, IC50/2 dose) [%] | DNA synthesis inhibition ([4]; 24-hour incubation, IC50 dose) [%] | DNA synthesis inhibition ([4]; 48-hour incubation, 2xIC50 dose) [%] | DNA synthesis inhibition ([4]; 48-hour incubation, IC50/2 dose) [%] | DNA synthesis inhibition ([4]; 48-hour incubation, IC50 dose) [%] | DNA synthesis inhibition ([4]; 72-hour incubation, 2xIC50 dose) [%] | DNA synthesis inhibition ([4]; 72-hour incubation, IC50/2 dose) [%] | DNA synthesis inhibition ([4]; 72-hour incubation, IC50 dose) [%] | IC50 [5] [µM] |
| --- | --- | --- | --- | --- | --- | --- | --- | --- | --- | --- | --- | --- | --- |
| CCn1c(SCC(=O)c2ccc(C)cc2C)nnc1-c1[nH]cnc1C [Compound 4h] | 17.2 | > 100 | 27.2 |  |  |  |  |  |  |  |  |  |  |
| CCn1c(SCC(=O)c2ccc([N+](=O)[O-])cc2)nnc1-c1nc[nH]c1C [Compound 4d, 2-((4-ethyl-5-(5-methyl-1H-imidazol-4-yl)-4H-1,2,4-triazol-3-yl)thio)-1-(4-nitrophenyl) ethan-1-one] | 17.2 | 6.73 | 13.2 | 63.3 | 16.1 | 28.1 | 79.0 | 40.4 | 77.5 | 92.4 | 77.8 | 80.6 | 0.097 |
| CCn1c(SCC(=O)c2ccc(Cl)cc2Cl)nnc1-c1[nH]cnc1C [Compound 4j] | 66.1 | 28.9 | 18.4 |  |  |  |  |  |  |  |  |  |  |
| CCn1c(SCC(=O)c2ccc(F)cc2F)nnc1-c1[nH]cnc1C [Compound 4i] | 86.2 | 64.4 | 27.2 |  |  |  |  |  |  |  |  |  |  |
